Laboratory results from patent US9345703B2, “Kappa opioid receptor effectors and uses thereof” (University of Kansas, priority 2011, dated 2016).

What was measured:
Format in all cases: cell-based
KOR [1] = target: T1, KOR (Homo sapiens, UniProt P41145); assay: DISCOVERX β-arrestin […] assay, agonist mode (KOR DRx); settings: for EC50: agonist; for Emax (%): at highest concentration tested, compared to dynorphin A (Emax=100%)
Description: (§1) In this campaign, two assay platforms were employed to evaluate KOR activity and selectivity: the KOR1 DISCOVERX β-Arrestin […] assay and an imaging based β-arrestin translocation assay for confirmatory and selectivity assays. The KOR1 DISCOVERX β-Arrestin […] assay is a commercial platform for direct measurement of GPCR (G protein-coupled receptor) activation by detection of β-Arrestin binding to the KOR. […] In cells that stably express these fusion proteins, ligand stimulation results in the recruitment of β-Arrestin by the GPCR. This interaction encourages the complementation of the two β-galactosidase fragments resulting in the formation of a functional enzyme that converts substrate in the assay medium to a detectable signal.

KOR [2] = target: T1, KOR; assay: High content imaging based β-arrestin translocation assay, KOR agonist (KOR HCS); settings: n = 2, read-out: Average Potency KOR HCS
Description: as §1, with “signal. The imaging based high-content β-arrestin translocation assay is based upon the redistribution of β-Arrestin linked to green fluorescent protein (GFP) to the cell surface and detection (Barak, et al. (1997) J. Biol. Chem. 272:27497-27500).” for “signal.”
(§2) Initially, a portion (approximately 290,000 compounds) of the MLSMR compound collection was tested in the KOR1 DISCOVERX β-arrestin primary kappa opioid (KOP) agonist and antagonist screens (PUBCHEM AID 1777 and 1778, respectively) at a single concentration point (10 μM). […] These compounds were concurrently tested in a β-galactosidase counterscreen assay (PUBCHEM AID 1966) to assess the possibility that these compounds might inhibit the reporting enzyme. […] The KOR:DOR:MOR selectivity of the compounds was determined using the analogous β-arrestin translocation assays for the DOR (PUBCHEM AID 2370 and 2357, for agonists and antagonist, respectively) and the MOR (PUBCHEM AID 2352 and 2420, for agonists and antagonists, respectively).

MOR = MOR (Homo sapiens, UniProt P35372); assay: High content imaging based β-arrestin translocation assay, MOR agonist (MOR HCS); settings: n = 2, read-out: Average Potency MOR HCS
MOR, sequence (P35372 whole entry): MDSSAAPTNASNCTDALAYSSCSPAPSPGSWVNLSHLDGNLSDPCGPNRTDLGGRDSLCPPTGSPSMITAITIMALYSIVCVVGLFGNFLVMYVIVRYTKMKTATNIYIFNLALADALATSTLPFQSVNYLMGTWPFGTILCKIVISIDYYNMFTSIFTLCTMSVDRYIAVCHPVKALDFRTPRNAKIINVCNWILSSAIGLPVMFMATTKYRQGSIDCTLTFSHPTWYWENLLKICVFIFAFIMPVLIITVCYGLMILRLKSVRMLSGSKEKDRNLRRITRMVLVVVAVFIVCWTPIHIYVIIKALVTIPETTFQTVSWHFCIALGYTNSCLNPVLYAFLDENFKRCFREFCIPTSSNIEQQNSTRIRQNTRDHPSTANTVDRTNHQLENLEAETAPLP
Description: as §1, with “signal. The imaging based high-content β-arrestin translocation assay is based upon the redistribution of β-Arrestin linked to green fluorescent protein (GFP) to the cell surface and detection (Barak, et al. (1997) J. Biol. Chem. 272:27497-27500).” for “signal.”
as §2

[3] = n = 3, read-out: Average Potency KOR DRx
[4] = n = 4, Table 11, read-out: Potency, EC50 (DRx)

T1 sequence (P41145 whole entry, the tested form may be a part): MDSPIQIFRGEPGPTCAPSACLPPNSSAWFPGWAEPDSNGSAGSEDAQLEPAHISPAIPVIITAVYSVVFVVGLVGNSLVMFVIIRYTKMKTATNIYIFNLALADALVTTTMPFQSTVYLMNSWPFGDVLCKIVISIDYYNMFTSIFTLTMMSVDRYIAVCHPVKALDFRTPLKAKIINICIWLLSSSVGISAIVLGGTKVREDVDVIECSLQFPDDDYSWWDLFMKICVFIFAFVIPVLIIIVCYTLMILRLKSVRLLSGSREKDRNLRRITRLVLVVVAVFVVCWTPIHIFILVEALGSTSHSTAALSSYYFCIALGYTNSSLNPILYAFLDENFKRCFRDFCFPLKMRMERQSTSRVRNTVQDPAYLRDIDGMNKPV

| SMILES | Emax (KOR [1]) [%] | EC50 (KOR [1]; [3]) [µM] | EC50 (KOR [2]) [µM] | EC50 (MOR) [µM] | Emax (%) (KOR [1]) | EC50 (KOR [1]; [4]) [µM] |
| --- | --- | --- | --- | --- | --- | --- |
| CC(C)(C)c1ccc(CSc2nnc(-c3ccccn3)n2Cc2ccco2)cc1 [2{6}] | ~100 | 2.01 ± 0.07 | 0.6 | > 32 |  |  |
| Clc1ccc(CSc2nnc(-c3ccccn3)n2Cc2cccs2)cc1Cl [2{9}, 2-(5-((3,4-Dichlorobenzyl)thio)-4-(thiophen-2-ylmethyl)-4H-1,2,4-triazol-3-yl)pyridine] | ~135 | 0.73 ± 0.11 | 0.43 | > 32 |  |  |
| Clc1ccc(CSc2nnc(-c3ccccn3)n2Cc2ccco2)c(Cl)c1 [Compound 2{1}] |  | 1.86 ± 0.07 | 0.93 | > 32 | ~100 |  |
| Clc1ccc(CSc2nnc(-c3ccccn3)n2Cc2cccs2)c(Cl)c1 [Compound 2{2}] |  | 2.27 ± 0.46 | 8.11 | > 32 | ~120 |  |
| Brc1ccc(CSc2nnc(-c3ccccn3)n2Cc2ccco2)cc1 [Compound 2{3}] |  | 1.92 ± 0.05 | 1.36 | > 32 | ~100 |  |
| Brc1ccc(CSc2nnc(-c3ccccn3)n2Cc2cccs2)cc1 [Compound 2{4}] |  | 1.85 ± 0.11 | 1.1 | > 32 | ~185 |  |
| Clc1cccc(CSc2nnc(-c3ccccn3)n2Cc2ccco2)c1 [Compound 2{7}] | ~100 | 6.76 ± 0.01 | 3.63 | > 32 |  |  |
| FC(F)(F)c1cc(CSc2nnc(-c3ccccn3)n2Cc2ccco2)ccc1Cl [Compound 2{10}] |  | 0.5 | 0.46 | > 32 | ~122 |  |
| Cc1ccc(CSc2nnc(-c3ccccn3)n2Cc2cccs2)cc1 [Compound 2{13}] |  | 3.59 ± 0.3 | 2.38 | > 32 | ~170 |  |
| FC(F)(F)c1ccc(CSc2nnc(-c3ccccn3)n2Cc2ccco2)cc1 [Compound 2{14}] |  | 2.77 | 1.25 | > 32 | ~166 |  |
| FC(F)(F)c1ccc(CSc2nnc(-c3ccccn3)n2Cc2cccs2)cc1 [Compound 2{15}] |  | 1.23 | 0.6 | > 32 | ~149 |  |
| Fc1cc(F)cc(CSc2nnc(-c3ccccn3)n2Cc2ccco2)c1 [Compound 2{16}] |  | 7.89 | 21 | > 32 | ~104 |  |
| Cc1cc(C)c(CSc2nnc(-c3ccccn3)n2Cc2ccco2)c(C)c1 [Compound 2{18}] |  |  |  | > 32 | ~100 |  |
| Cc1cc(C)c(CSc2nnc(-c3ccccn3)n2Cc2cccs2)c(C)c1 [Compound 2{19}] |  | > 20 | 9.5 | > 32 |  |  |
| Fc1ccc(CSc2nnc(-c3ccccn3)n2Cc2cccs2)c(F)c1 [Compound 2{24}] |  | 6.74 ± 0.97 | 5.68 | > 32 | ~155 |  |
| O=[N+]([O-])c1ccc(CSc2nnc(-c3ccccn3)n2Cc2ccco2)cc1 [Compound 2{25}] |  | 2.48 | 2.35 | > 32 | ~120 |  |
| O=[N+]([O-])c1ccc(CSc2nnc(-c3ccccn3)n2Cc2cccs2)cc1 [Compound 2{26}] |  | 1.24 | 0.96 | > 32 | ~128 |  |
| N#Cc1ccc(CSc2nnc(-c3ccccn3)n2Cc2ccco2)cc1 [Compound 2{27}] |  | 6.79 | 19 | > 32 | ~105 |  |
| N#Cc1ccc(CSc2nnc(-c3ccccn3)n2Cc2cccs2)cc1 [Compound 2{28}] |  | 4.64 | 3.5 | > 32 | ~142 |  |
| COC(=O)c1ccc(CSc2nnc(-c3ccccn3)n2Cc2ccco2)cc1 [Compound 2{29}] |  | 6.62 | 18.5 | > 32 | ~125 |  |
| COC(=O)c1ccc(CSc2nnc(-c3ccccn3)n2Cc2cccs2)cc1 [Compound 2{30}] |  | 6.14 | 6 | > 32 | ~154 |  |
| CC(=O)Oc1ccc(CSc2nnc(-c3ccccn3)n2Cc2ccco2)cc1 [Compound 2{31}] |  | > 20 | > 32 | > 32 |  |  |
| CC(=O)Oc1ccc(CSc2nnc(-c3ccccn3)n2Cc2cccs2)cc1 [Compound 2{32}] |  | > 20 | > 32 | > 32 |  |  |
| CC(C)c1ccc(CSc2nnc(-c3ccccn3)n2Cc2ccco2)cc1 [Compound 2{33}] |  | 5.97 | 2.8 | > 32 | 165 |  |
| COc1cccc(CSc2nnc(-c3ccccn3)n2Cc2cccs2)c1 [Compound 2{38}] |  | 8.72 | 12.2 | > 32 | ~100 |  |
| Cc1c(CSc2nnc(-c3ccccn3)n2Cc2ccco2)cccc1[N+](=O)[O-] [Compound 2{39}] |  | 8.21 | 12 | > 32 | ~128 |  |

| SMILES | Emax (KOR [1]) [%] | EC50 (KOR [1]; [3]) [µM] | EC50 (KOR [2]) [µM] | EC50 (MOR) [µM] | Emax (%) (KOR [1]) | EC50 (KOR [1]; [4]) [µM] |
| --- | --- | --- | --- | --- | --- | --- |
| Cc1c(CSc2nnc(-c3ccccn3)n2Cc2cccs2)cccc1[N+](=O)[O-] [Compound 2{40}] |  | 5.81 | 4.2 | > 32 | ~105 |  |
| Fc1ccc(CSc2nnc(-c3ccccn3)n2Cc2ccco2)c(F)c1F [Compound 2{43}] |  | 7 | 5.3 | > 32 | ~140 |  |
| Fc1ccc(CSc2nnc(-c3ccccn3)n2Cc2cccs2)c(F)c1F [Compound 2{44}] |  | 3.04 | 1.7 | > 32 | ~115 |  |
| Fc1ccc(CSc2nnc(-c3ccccn3)n2Cc2ccco2)c(C(F)(F)F)c1 [Compound 2{45}] |  | 8.27 | 5.4 | > 32 | ~138 |  |
| Fc1ccc(CSc2nnc(-c3ccccn3)n2Cc2cccs2)c(C(F)(F)F)c1 [Compound 2{46}] |  | 4.46 | 2.25 | > 32 | ~109 |  |
| Clc1ccccc1CSc1nnc(-c2ccccn2)n1Cc1cccs1 [Compound 2{48}] |  | 10.2 | 4.1 | > 32 | ~100 |  |
| COc1ccc(Cn2c(SCc3ccccc3)nnc2-c2ccccn2)cc1 [Entry 1] |  |  |  |  |  | > 20 |
| COc1ccc(Cn2c(SCc3ccc(Br)cc3)nnc2-c2ccccn2)cc1 [Entry 2] |  |  |  |  |  | > 20 |
| COc1ccc(Cn2c(SCc3ccc(Cl)c(Cl)c3)nnc2-c2ccccn2)cc1 [Entry 3] |  |  |  |  |  | 11.8 |
| COc1ccc(Cn2c(SCc3ccc(Cl)c(C(F)(F)F)c3)nnc2-c2ccccn2)cc1 [Entry 4] |  |  |  |  |  | > 19.7 |
| c1ccc(CSc2nnc(-c3ccccn3)n2Cc2ccccc2)cc1 [Entry 5] |  |  |  |  |  | > 20 |
| Brc1ccc(CSc2nnc(-c3ccccn3)n2Cc2ccccc2)cc1 [Entry 6] |  |  |  |  |  | 4.06 |
| Clc1ccc(CSc2nnc(-c3ccccn3)n2Cc2ccccc2)cc1Cl [Entry 7] |  |  |  |  |  | 1.24 |
| FC(F)(F)c1cc(CSc2nnc(-c3ccccn3)n2Cc2ccccc2)ccc1Cl [Entry 8] |  |  |  |  |  | 2.22 |
| c1ccc(CSc2nnc(-c3ccccn3)n2Cc2cccnc2)cc1 [Entry 9] |  |  |  |  |  | > 20 |
| Brc1ccc(CSc2nnc(-c3ccccn3)n2Cc2cccnc2)cc1 [Entry 10] |  |  |  |  |  | 8.51 |
| Clc1ccc(CSc2nnc(-c3ccccn3)n2Cc2cccnc2)cc1Cl [Entry 11] |  |  |  |  |  | 0.76 |
| Clc1ccccc1Cn1c(SCc2ccccc2)nnc1-c1ccccn1 [Entry 13] |  |  |  |  |  | > 20 |
| FC(F)(F)c1cc(CSc2nnc(-c3ccccn3)n2Cc2ccccc2Cl)ccc1Cl [Entry 16] |  |  |  |  |  | 4.3 |
| c1ccc(CSc2nnc(-c3ccncc3)n2Cc2ccco2)cc1 [Entry 17] |  |  |  |  |  | > 20 |
| FC(F)(F)c1cc(CSc2nnc(-c3ccncc3)n2Cc2ccco2)ccc1Cl [Entry 20] |  |  |  |  |  | > 20 |
| Brc1ccc(-c2nnc(SCc3ccccc3)n2Cc2ccco2)cc1 [Entry 21] |  |  |  |  |  | > 20 |
| Brc1ccc(CSc2nnc(-c3ccc(Br)cc3)n2Cc2ccco2)cc1 [Entry 22] |  |  |  |  |  | 13.5 |
| Clc1ccc(CSc2nnc(-c3ccc(Br)cc3)n2Cc2ccco2)cc1Cl [Entry 23] |  |  |  |  |  | 11 |
| FC(F)(F)c1cc(CSc2nnc(-c3ccc(Br)cc3)n2Cc2ccco2)ccc1Cl [Entry 24] |  |  |  |  |  | 13.3 |
